We go through 6 compounds from patent US20070020196A1, “Inhalant formulation containing sulfoalkyl ether cyclodextrin and corticosteroid prepared from a unit dose suspension” (priority 2003, published 2007).

For orientation: solubility means the concentration that dissolves in the medium under given conditions.

A short description of one data set: physchem. Particulars: thermodynamic from solid.
Data set [1] is described as follows: Density of CAPTISOL solutions (pycnometer). It counts as physicochemical. Particulars: 25° C. On the procedure: The concentration of SAE-CD in solution can be expressed on a weight to weight or weight to volume basis; however, these two units are interconvertible. When a known weight of cyclodextrin is dissolved in a known weight of water, the % w/w cyclodextrin concentration is determined by dividing the cyclodextrin weight in grams by the total weight (cyclodextrin+water weight) in like units and multiplying by 100. When a known weight of cyclodextrin is dissolved to a known total volume, the % w/v cyclodextrin concentration is determined by dividing the cyclodextrin weight in grams by the total volume in milliliters and multiplying by 100. The correlation between the two cyclodextrin concentration percentages was experimentally determined by preparing various % w/w cyclodextrin solutions and measuring the density of each with a pycnometer at 25° C.

A short description of data set [2]: Viscosity of aqueous SAE-CD solutions (cone and plate viscometer). It counts as physicochemical. Particulars: 25 C. As for the experimental part:
The performance of an inhalable solution of the invention in a nebulizer may depend upon the viscosity of the solution in its reservoir, the nebulization solution. Viscosity of the inhalable composition can have an impact on percentage of nebulization composition emitted from a nebulizer, output rate of nebulized corticosteroid and droplet size distribution.
The viscosity of aqueous solutions containing SAE-CD were measured using a cone and plate viscometer.
A Brookfield Programmable DV-III+ Rheometer, CPE-40 cone and CPE 40Y plate (Brookfield Engineering Laboratories, Middleboro, Mass.) was used to make measurements on 0.5 ml samples at 1, 2, 3, 5 and 10 rpm. Samples were sheered for approximately 5 revolutions prior to each measurement. This allowed accurate rheological characterization of the samples. The temperature of all samples was equilibrated to 25+/−1 degree centigrade using a double wall viscometer cone supplied with water from an electronically controlled thermostatic circulating water bath (Model, 8001, Fisher Scientific, Pittsburgh, Pa.). The viscometer was calibrated using 5 and 50 centipoise using silicon oil calibration standards. Viscosity measurements were made at 5 or more rotation speeds to look for sheer thinning behavior (viscosities that decrease as the rate of sheer increases). Higher rotation speeds result in increased rates of sheer.

Data set [3] in a line: Tonicity of SBE7-β-CD solutions with respect to blood. Particulars: in water. Type of data set: physicochemical. The source says:
An osmotic agent can be used in the compositions to enhance the overall comfort to the patient upon delivery of the corticosteroid composition. Osmotic agents can be added to adjust the tonicity of SAE-CD containing solutions. Osmolality is related to concentration of SAE-CD in water. At SBE7-β-CD concentrations below about 11-13% w/v, the solutions are hypotonic or hypoosmotic with respect to blood and at SBE7-β-CD concentrations above about 11-13% w/v the SBE7-β-CD containing solutions are hypertonic or hyperosmotic with respect to blood. When red blood cells are exposed to solutions that are hypo- or hypertonic, they can shrink or swell in size, which can lead to hemolysis. As noted above and in FIG. 1, SBE-CD is less prone to induce hemolysis than other derivatized cyclodextrins. Suitable osmotic agents include any low molecular weight water-soluble species pharmaceutically approved for pulmonary and nasal delivery such as sodium chloride, lactose and glucose. The formulation of the invention can also include biological salt(s), potassium chloride, or other electrolyte(s).

The subject of the next data set is red blood cells. Particulars: concentrations typically used to solubilize pharmaceutical formulations; cited from earlier work.
A short description of data set [4]: Molar ratio SAE-CD:corticosteroid at saturated solubility (phase solubility binding study). It counts as physicochemical.
For data set [5] the following is noted: male, human, in vivo; cited from earlier work.
Data set [6] can be described thus: Solubility of selected steroids enhanced by cyclodextrins (phase solubility). Particulars: thermodynamic from solid.
Data set [7] can be described thus: Light stability of budesonide under fluorescent lights. Type of data set: physicochemical. The source says: Samples of the above solutions were also placed in a chamber under a bank of fluorescent lights. Vials were periodically removed and assayed for budesonide. […] The loss of budesonide was first order and independent of pH.
[8] abbreviates: aqueous with cosolvent or surfactant or cyclodextrin, [Steroid] solubility, (SBE)6.1 γ-CD (0.04 M).
Where [9] appears, read: aqueous with cosolvent or surfactant or cyclodextrin, [Steroid] solubility, Captisol (0.04 M).
The mark [10] stands for this setting: water, [Steroid] Intrinsic Solubility (in H2O).
Setting [11] is: aqueous cyclodextrin solution, aqueous with cosolvent or surfactant or cyclodextrin, Solubility of steroid, (SBE)5.2 γ-CD 0.1 M.
Setting [12] is: aqueous cyclodextrin solution, aqueous with cosolvent or surfactant or cyclodextrin, Solubility of steroid, (SBE)6.1 γ-CD 0.04 M.
Where [13] appears, read: aqueous cyclodextrin solution, aqueous with cosolvent or surfactant or cyclodextrin, Solubility of steroid, (SBE)6.1 γ-CD 0.08 M.
[14] abbreviates: aqueous cyclodextrin solution, aqueous with cosolvent or surfactant or cyclodextrin, Solubility of steroid, (SBE)6.7 β-CD 0.0465 M.
Setting [15] is: aqueous cyclodextrin solution, aqueous with cosolvent or surfactant or cyclodextrin, Solubility of steroid, (SBE)6.7 β-CD 0.0950 M.
Setting [16] is: aqueous cyclodextrin solution, aqueous with cosolvent or surfactant or cyclodextrin, Solubility of steroid, (SBE)7 α-CD 0.04 M.
The mark [17] stands for this setting: aqueous cyclodextrin solution, aqueous with cosolvent or surfactant or cyclodextrin, Solubility of steroid, (SBE)7 α-CD 0.08 M.
Where [18] appears, read: aqueous cyclodextrin solution, aqueous with cosolvent or surfactant or cyclodextrin, Solubility of steroid, (SBE)9.7 γ-CD […].
[19] abbreviates: aqueous cyclodextrin solution, aqueous with cosolvent or surfactant or cyclodextrin, Solubility of steroid, (SPE)5.4 γ-CD 0.08 M.
Setting [20] is: aqueous cyclodextrin solution, aqueous with cosolvent or surfactant or cyclodextrin, Solubility of steroid, (SPE)7 β-CD 0.08 M.
Setting [21] is: aqueous cyclodextrin solution, aqueous with cosolvent or surfactant or cyclodextrin, Solubility of steroid, β-CD 0.015M.
The mark [22] stands for this setting: aqueous cyclodextrin solution, aqueous with cosolvent or surfactant or cyclodextrin, Solubility of steroid, γ-CD 0.035 M.
The mark [23] stands for this setting: aqueous cyclodextrin solution, aqueous with cosolvent or surfactant or cyclodextrin, Solubility of steroid, γ-CD 0.1 M.

In brackets after ≈: the same amount, converted by molar mass.

Regarding `C[C@]12C=CC(=O)C=C1CC[C@@H]1[C@@H]2C(=O)C[C@@]2(C)[C@H]1CC[C@]2(O)C(=O)CO` [Prednisone], the solubility was 13100 µM (≈ 4710 µg/mL) in “physchem” (setting [8]), 18300 µM (≈ 6570 µg/mL) in the data set “physchem” (setting [9]) and 505 µM (≈ 181 µg/mL) in the data set “physchem” (setting [10]).
Consider “Sulfobutyl ether β-cyclodextrin [Captisol]”, for which the Density in [1] (8.5 % w/w Captisol) is 1.041 g/mL; in data set [1] (29.8 % w/w Captisol), 1.149 g/mL; in [1] (39.7 % w/w Captisol), 1.202 g/mL; in [1] (49.4 % w/w Captisol), 1.259 g/mL; in data set [1] (59.4 % w/w Captisol) it was 1.320 g/mL; in data set [1] ([…] w/w Captisol), 1.095 g/mL. In addition, the Viscosity was 1.75 Cp in [2] (8.5 % w/w Captisol); 5.91 Cp in [2] (29.8 % w/w Captisol); 17.0 Cp in data set [2] (39.7 % w/w Captisol); 51.9 Cp in [2] (49.4 % w/w Captisol); 527.0 Cp in [2] (59.4 % w/w Captisol); 2.78 Cp in data set [2] ([…] w/w Captisol). The “SBE7-β-CD concentration below which solutions are hypotonic and above which hypertonic with respect to blood” value in data set [3] is 11-13 % w/v. In the data set with red blood cells, the Hemolytic behavior result is on record as “essentially no hemolytic behavior”.
In the case of `CC1(C)O[C@@H]2C[C@H]3[C@@H]4C[C@H](F)C5=CC(=O)C=C[C@]5(C)[C@H]4[C@@H](O)C[C@]3(C)[C@]2(C(=O)CO)O1` [Flunisolide], the “Approximate Molar Ratio at Saturated Solubility of Corticosteroid (SAE-CD: corticosteroid)” value (“Approximate Molar Ratio” below) is ~16 in [4] (SAE-β-CD) and ~9 in data set [4] (SAE-γ-CD). Also, the results for the solubility in the data set “physchem” (setting [8]), in “physchem” (setting [9]) and in the data set “physchem” (setting [10]) were 4550 µM (≈ 1980 µg/mL), 2620 µM (≈ 1140 µg/mL) and 113 µM (≈ 49.1 µg/mL), respectively.
Turning to `CCNC(=O)[C@@H]1CCCN1C(=O)[C@H](CCCNC(=N)N)NC(=O)[C@H](CC(C)C)NC(=O)[C@@H](CC(C)C)NC(=O)[C@H](Cc1ccc(O)cc1)NC(=O)[C@H](CO)NC(=O)[C@H](Cc1c[nH]c2ccccc12)NC(=O)[C@H](Cc1c[nH]cn1)NC(=O)[C@@H]1CCC(=O)N1` [leuprolide acetate], in data set [5], the Bioavailability is recorded as 2.4% and the “Bioavailability compared with i.v.” value is 94%.
Turning to `C[C@@H]1C[C@H]2[C@@H]3CCC4=CC(=O)C=C[C@]4(C)[C@@]3(Cl)[C@@H](O)C[C@]2(C)[C@@]1(O)C(=O)CCl` [Mometasone, mometasone], the “Approximate Molar Ratio” value is ~73 in data set [4] (SAE-α-CD) and ~33 in data set [4] (SAE-β-CD). Further, the solubility in [6] (setting [11]) is 8890 µM; in [6] (setting [12]), 8410 µM; in data set [6] (setting [13]) it was 14200 µM; in data set [6] (setting [14]), 1220 µM; in [6] (setting [15]), 2260 µM; in [6] (setting [16]), 550 µM. Besides, the solubility amounted to 1170 µM in data set [6] (setting [17]); 8900 µM in data set [6] (setting [18]); 14700 µM in [6] (setting [19]); 1220 µM in data set [6] (aqueous cyclodextrin solution, aqueous with cosolvent or surfactant or cyclodextrin, Solubility of steroid, (SPE)7 β-CD 0.04 M); 2230 µM in data set [6] (setting [20]); 84 µM in data set [6] (aqueous cyclodextrin solution, aqueous with cosolvent or surfactant or cyclodextrin, Solubility of steroid, α-CD 0.04 M). Besides, the solubility in data set [6] (aqueous cyclodextrin solution, aqueous with cosolvent or surfactant or cyclodextrin, Solubility of steroid, α-CD 0.08 M) was found to be 285 µM; in data set [6] (setting [21]), 129 µM; in [6] (setting [22]) it was 27.1 µM; in data set [6] (setting [23]) it was 0.9 µM.
As for `CCCC1O[C@@H]2C[C@H]3[C@@H]4CCC5=CC(=O)C=C[C@]5(C)[C@H]4[C@@H](O)C[C@]3(C)[C@]2(C(=O)CO)O1` (stereo partly drawn) [Budesonide, (R,S)-11β,16α,17,21-tetrahydroxypregna-1,4-diene-3,20-dione cyclic 16,17-acetal with butyraldehyde], the “Approximate Molar Ratio” value is listed as ~12 in data set [4] (SAE-α-CD); ~16 in [4] (SAE-β-CD); ~10.8 (SBE5.2), in data set [4] (SAE-γ-CD (SBE5.2)); ~13 (SBE6.1), in data set [4] (SAE-γ-CD (SBE6.1)); ~10.1 (SPE5.4) in data set [4] (SAE-γ-CD (SPE5.4)). Besides, the “Light Stability, Pseudo 1st Order Rate constant” value is 0.0585 h⁻¹ in [7] (Captisol, pH 4); 0.0562 h⁻¹ in [7] (Captisol, pH 6); 0.0812 h⁻¹ in data set [7] (No Captisol, pH 4); 0.0822 h⁻¹ in [7] (No Captisol, pH 6). Also, the solubility in data set [6] (aqueous cyclodextrin solution, aqueous with cosolvent or surfactant or cyclodextrin, Solubility of steroid, (SBE)5.2 γ-CD 0.04 M) came out at 3760 µM; in data set [6] (setting [11]), 8620 µM; in data set [6] (setting [12]) it was 3070 µM; in data set [6] (setting [13]), 6990 µM; in data set [6] (setting [14]), 2550 µM; in [6] (setting [15]), 4280 µM. Besides, the solubility worked out at 3480 µM in [6] (setting [16]); 5980 µM in [6] (setting [17]); 4530 µM in data set [6] (setting [18]); 4010 µM in [6] (aqueous cyclodextrin solution, aqueous with cosolvent or surfactant or cyclodextrin, Solubility of steroid, (SPE)5.4 γ-CD 0.04 M); 7740 µM in data set [6] (setting [19]); 2420 µM in [6] (setting [20]). Moreover, the solubility in data set [6] (setting [21]) came to 813 µM; in data set [6] (setting [22]), 101 µM; in [6] (setting [23]) it was 41 µM; in data set [6] (aqueous cyclodextrin solution, aqueous with cosolvent or surfactant or cyclodextrin, [Steroid] solubility, (SBE)6.1 γ-CD (0.04 M)) it was 3070 µM; in data set [6] (aqueous cyclodextrin solution, aqueous with cosolvent or surfactant or cyclodextrin, [Steroid] solubility, Captisol (0.04 M)), 2550 µM; in [6] (water, Solubility of steroid, H2O, no CD) it was 65.9 µM. Also, the solubility in data set [6] (water, [Steroid] Intrinsic Solubility (in H2O), in H2O) is 66 µM.
